Patent US20080033026A1, “Antimicrobial compositions, methods and systems” (priority 2006, published 2008)

How the values were obtained:
Format in all cases: cell-based
all organisms = assay: Time kill test, all organisms of Example 2; conditions: even after 10 minutes, all concentrations (0.01, 0.05 and 0.1%)
Protocol: The assessment of efficacy of 9-decenoic acid against a spectrum of microorganisms was determined using the American Society for Testing and Materials (ASTM) procedure entitled “Standard Test Method for the Assessment of Microbiocidal Activity of Test Materials Using a Time-Kill Procedure,” October 1998. This procedure incorporates the recommendations described in the “Manual of Clinical Microbiology,” 5th ed., edited by A. B. Balows et al., ASM, Washington, and is directed by the Federal Register, June 1994.
Challenge organisms were prepared as follows. Cultures of the following organisms were obtained: Staphylococcus aureus (ATCC 6538), Pseudomonas aeruginosa (ATCC 15442), Staphylococcus epidermidis (ATCC 12228), Klebsiella pneumoniae (ATCC 4352), Escherichia coli 0157:H7 (ATCC 43895) and Candida albicans (ATCC 10231). The stock cultures were transferred to sterile tubes and sterile tryptic soy broth (TSB) was added to the cultures. […]
Concentrated 9-decenoic acid (97%) was diluted in filter sterilized isopropanol to yield a 25,000 ppm stock solution. […] The pH was determined for each dilution; pH values ranged from 4.4-4.1. […]
At each exposure sample time, a 1.0 ml aliquot of the inoculated 9-decenoic acid suspension was transferred to 9.0 ml of D/E Neutralizing Broth. […] The plates were enumerated, recorded and log kill determined for each time point. […]

[1] = system: Candida albicans (ATCC 10231); assay: MIC and MBC determination (broth dilution)
Protocol: (§1) The determination of the MIC and MBC of 9-decenoic acid conformed to the procedure printed in the Federal Register, June 1994 and the present NCCLS M11-A4 protocol. Challenge organisms were prepared as follows. The MIC and MBC of 9-decenoic acid and the methyl ester of 9-decenoic acid were determined for the following challenge organisms: Staphylococcus aureus (ATCC 6538), Pseudomonas aeruginosa (ATCC 15442), Staphylococcus epidermidis (ATCC 12228), Klebsiella pneumoniae (ATCC 4352), Escherichia coli 0157:H7 (ATCC 43895) and Candida albicans (ATCC 10231). Stock cultures of each organism were transferred onto suitable culture media, Mueller-Hinton Agar (MHA) plates, and incubated for 24 hours (+2 hours) at 37° C. (+2° C.). On the day of the test, the top of at least three to five well-isolated colonies were transferred via wire loop to a tube containing 4 to 5 ml of Trypticase Soy Broth (TSB). The TSB culture was incubated for 2 to 6 hours and turbidity was adjusted with sterile saline to achieve the turbidity of a McFarland 0.5 Standard.
(§2) The concentrated 9-decenoic acid (97%) was diluted in Mueller-Hinton Broth (MHB) to yield a 25,000 ppm stock solution of the 9-decenoic acid. For each organism, 12 dilutions of the 9-decenoic acid in MHB were prepared ranging from 0.25% to 0.00049%. The test solution of the methyl ester of 9-decenoic acid was formulated in the same manner.
(§3) A 2-ml aliquot of appropriately diluted 9-decenoic acid solution or methyl ester of 9-decenoic acid was placed in each tube. Each tube was inoculated with 0.05 ml of a 1:10 dilution of one challenge organism. Tubes were incubated at 37° C. (±2° C.) for 20-24 hours and observed for microbial growth visually and by spectrophotometer. […] (±2° C.) for 20-24 hours and visually observed for growth.
(§4) Controls were run for sterility, viability and organism confirmation. It was determined that all cultures were viable and pure.
(§5) The MBC was defined as the concentration of 9-decenoic acid or the methyl ester of 9-decenoic acid that completely eradicated viable organisms from the test system.

[2] = system: Klebsiella pneumoniae (ATCC 4352); assay: MIC and MBC determination (broth dilution); conditions: Mueller-Hinton Broth, 20-24 h, 37° C.
Protocol: as §1, §2, §3, §4, §5

[3] = system: Staphylococcus epidermidis (ATCC 12228); assay: MIC and MBC determination (broth dilution); conditions: subculture on TSA
Protocol: as §1, §2, §3, §4, §5

[4] = system: Escherichia coli 0157:H7 (ATCC 43895); assay: MIC and MBC determination (broth dilution)
Protocol: as §1, §2, §3, §4, §5

[5] = system: Pseudomonas aeruginosa (ATCC 15442); assay: MIC and MBC determination (broth dilution); conditions: Mueller-Hinton Broth, 20-24 h, 37° C.
Protocol: as §1, §2, §3, §4, §5

[6] = Mueller-Hinton Broth, 20-24 h, 37° C.

C=CCCCCCCCC(=O)OC [Methyl ester of 9-decenoic acid, methyl ester of 9-decenoic acid]
log reduction (all organisms): < 1 log
MIC [1, 6]: 0.0156%
MBC ([1]; subculture on TSA): 0.0156%
MIC [2]: 0.0625%
MBC [3]: 0.25%
MIC [4, 6]: 0.125%
MBC ([4]; subculture on TSA): 0.125%
MIC [5]: 0.0625%
